The structures appear in SMILES notation.

Our source for the Binding % values is patent US10646488B2 (Araxes Pharma LLC, priority 2016, dated 2020).

For the first experiment, the target named is T1, KRAS G12C 1-169, his-tagged protein, GDP-loaded (Homo sapiens, UniProt P01116, G12C).
T1 construct: KRAS G12C 1-169, his-tagged protein, GDP-loaded
Briefly: Covalent binding (% modification) to KRAS G12C by mass spectrometry. Further: test concentration or dose not given here. As to conditions: covalent binding to KRAS G12C after a ten minute incubation period.
Turning to `C=CC(=O)N1CCN(c2nc(N3CC(N(C)C)C3)nc3c(F)c(-c4c(C)ccc5cn[nH]c45)c(Cl)cc23)C[C@H]1C` [Compound 69, 1-((2R)-4-(6-chloro-2-(3-(dimethylamino)azetidin-1-yl)-8-fluoro-7-(6-methyl-1H-indazol-7-yl)quinazolin-4-yl)-2-methyl-piperazin-1-yl) prop-2-en-1-one], the Binding % entry is reported as “+++ (+++ indicates binding activity greater than 90%)”.
Still for that read-out and setting: then `C=CC(=O)N1CCN(c2nc(N3CC(O)C3)nc3c(F)c(-c4c(O)cccc4F)c(Cl)cc23)[C@@H](C)C1` [Compound 34, 1-((3S)-4-(6-chloro-8-fluoro-7-(2-fluoro-6-hydroxyphenyl)-2-(3-hydroxy-azetidin-1-yl)quinazolin-4-yl)-3-methyl-piperazin-1-yl) prop-2-en-1-one], with “++ (++ indicates binding activity from 50 to 90%)”; and `C=CC(=O)N1C(C)CN(c2nc(N)nc3c(F)c(-c4c(O)cccc4F)c(Cl)cc23)CC1C` (stereo not drawn) [Compound 2, 1-(4-(2-amino-6-chloro-8-fluoro-7-(2-fluoro-6-hydroxyphenyl)quinazolin-4-yl)-2,6-dimethyl-piperazin-1-yl) prop-2-en-1-one], with “++ (++ indicates binding activity from 50 to 90%)”; and `C=CC(=O)N1CCN(c2nc(OCCN3CC(F)(F)C3)nc3c(F)c(-c4c(O)cccc4F)c(Cl)cc23)[C@@H](C)C1` [Compound 11, 1-((3S)-4-(6-chloro-2-(2-(3,3-difluoroazetidin-1-yl)ethoxy)-8-fluoro-7-(2-fluoro-6-hydroxyphenyl)quinazolin-4-yl)-3-methylpiperazin-1-yl)prop-2-en-1-one], with “+++ (+++ indicates binding activity greater than 90%)”.
Regarding `C=CC(=O)N1C[C@@H](C)N(c2nc(N)nc3c(F)c(-c4cc(O)cc5ccccc45)c(Cl)cc23)[C@@H](C)C1` [Compound 18, 1-((3S,5R)-4-(2-amino-6-chloro-8-fluoro-7-(3-hydroxynaphthalen-1-yl)quinazolin-4-yl)-3,5-dimethyl-piperazin-1-yl) prop-2-en-1-one], the Binding % entry was “++ (++ indicates binding activity from 50 to 90%)”.
On the same count and under the same terms, under `C=CC(=O)N1CCN(c2nc(N3CC(N(C)C)C3)nc3c(F)c(-c4c(O)cccc4F)c(Cl)cc23)[C@@H](C)C1` (atropisomer, axis not shown) [Compound 58, 1-((S)-4-((S)-6-chloro-2-(3-(dimethylamino)azetidin-1-yl)-8-fluoro-7-(2-fluoro-6-hydroxyphenyl)quinazolin-4-yl)-3-methyl-piperazin-1-yl) prop-2-en-1-one] stands “+++ (+++ indicates binding activity greater than 90%)”.

The same experiment, now with this note: covalent binding to KRAS G12C after a three minute incubation period.
As to `C=CC(=O)N1C[C@H](C)N(c2nc(N3CC(N(CC)CC)C3)nc3c(F)c(-c4c(C)ccc5[nH]ncc45)c(Cl)cc23)C[C@H]1C` (atropisomer, axis not shown) [Compound 151, 1-((2R,5S)-4-(6-chloro-2-(3-(diethylamino)azetidin-1-yl)-8-fluoro-7-((R)-5-methyl-1H-indazol-4-yl)quinazolin-4-yl)-2,5-dimethyl-piperazin-1-yl) prop-2-en-1-one], the Binding % entry is on record as “+++ (+++ indicates binding activity greater than 90%)”.
As for `C=CC(=O)N1C[C@H](C)N(c2nc(N3CC(NC)C3)nc3c(F)c(-c4c(C)ccc5cn[nH]c45)c(Cl)cc23)C[C@H]1C` [Compound 100, 1-((2R,5S)-4-(6-chloro-8-fluoro-7-(6-methyl-1H-indazol-7-yl)-2-(3-(methylamino)azetidin-1-yl)quinazolin-4-yl)-2,5-dimethyl-piperazin-1-yl) prop-2-en-1-one], the Binding % result was “++ (++ indicates binding activity from 50 to 90%)”.
As to `C=CC(=O)N1C[C@H](C)N(c2nc(N3CC(N(C)C4CC4)C3)nc3c(F)c(-c4c(C)ccc5[nH]ncc45)c(Cl)cc23)C[C@H]1C` [Compound 134, 1-((2R,5S)-4-(6-chloro-2-(3-(cyclopropyl (methyl)amino)azetidin-1-yl)-8-fluoro-7-(5-methyl-1H-indazol-4-yl)quinazolin-4-yl)-2,5-dimethyl-piperazin-1-yl) prop-2-en-1-one], the Binding % entry is given as “++ (++ indicates binding activity from 50 to 90%)”.
On to `C=CC(=O)N1C[C@H](C)N(c2nc(N3CC(N(C)C)C3)nc3c(F)c(-c4c(C)ccc5cn[nH]c45)c(Cl)cc23)C[C@H]1C` [Compound 187, 1-((2R,5S)-4-(6-chloro-2-(3-(dimethylamino)azetidin-1-yl)-8-fluoro-7-(6-methyl-1H-indazol-7-yl)quinazolin-4-yl)-2,5-dimethyl-piperazin-1-yl) prop-2-en-1-one], for which the Binding % result is recorded as “+++ (+++ indicates binding activity greater than 90%)”.
For `C=CC(=O)N1C[C@H](C)N(c2nc(OCCN3CC(F)(F)C3)nc3c(F)c(-c4c(C)ccc5cn[nH]c45)c(Cl)cc23)C[C@H]1C` [Compound 112, 1-((2R,5S)-4-(6-chloro-2-(2-(3,3-difluoroazetidin-1-yl)ethoxy)-8-fluoro-7-(6-methyl-1H-indazol-7-yl)quinazolin-4-yl)-2,5-dimethyl-piperazin-1-yl) prop-2-en-1-one], the Binding % result is listed as “++ (++ indicates binding activity from 50 to 90%)”.
Still for that read-out and setting: under `C=CC(=O)N1C[C@H](C)N(c2nc(N3CC(N(C)C(C)C)C3)nc3c(F)c(-c4c(O)cccc4F)c(Cl)cc23)C[C@H]1C` [Compound 99, 1-((2R,5S)-4-(6-chloro-8-fluoro-7-(2-fluoro-6-hydroxyphenyl)-2-(3-(isopropyl (methyl)amino)azetidin-1-yl)quinazolin-4-yl)-2,5-dimethyl-piperazin-1-yl) prop-2-en-1-one] stands “++ (++ indicates binding activity from 50 to 90%)”.
Consider `C=CC(=O)N1C[C@H](C)N(c2nc(N3CC(N(C)CC(F)F)C3)nc3c(F)c(-c4c(O)cccc4F)c(Cl)cc23)C[C@H]1C` [Compound 107, 1-((2R,5S)-4-(6-chloro-2-(3-((2,2-difluoroethyl) (methyl)amino)azetidin-1-yl)-8-fluoro-7-(2-fluoro-6-hydroxyphenyl)quinazolin-4-yl)-2,5-dimethyl-piperazin-1-yl) prop-2-en-1-one], for which the Binding % entry was “++ (++ indicates binding activity from 50 to 90%)”.
On the same count and under the same terms, under `C=CC(=O)N1C[C@H](C)N(c2nc(N3CC4(CCOCC4)C3)nc3c(F)c(-c4c(C)ccc5[nH]ncc45)c(Cl)cc23)C[C@H]1C` [Compound 162, 1-((2R,5S)-4-(6-chloro-8-fluoro-7-(5-methyl-1H-indazol-4-yl)-2-(7-oxa-2-azaspiro[3.5]nonan-2-yl)quinazolin-4-yl)-2,5-dimethyl-piperazin-1-yl) prop-2-en-1-one] stands “+ (+ indicates binding activity greater than 0% and up to 50%)”; under `C=CC(=O)N1C[C@H](C)N(c2nc(Oc3ccnn3C)nc3c(F)c(-c4c(C)ccc5[nH]ncc45)c(Cl)cc23)C[C@H]1C` [Compound 204, 1-((2R,5S)-4-(6-chloro-8-fluoro-7-(5-methyl-1H-indazol-4-yl)-2-((1-methyl-1H-pyrazol-5-yl)oxy)quinazolin-4-yl)-2,5-dimethyl-piperazin-1-yl) prop-2-en-1-one], “++ (++ indicates binding activity from 50 to 90%)”; under `C=CC(=O)N1C[C@H](C)N(c2nc(N3CC(N(C)C)C3)nc3c(F)c(-c4c(F)cccc4B4OC(C)(C)C(C)(C)O4)c(Cl)cc23)C[C@H]1C` [Compound 185, 1-((2R,5S)-4-(6-chloro-2-(3-(dimethylamino)azetidin-1-yl)-8-fluoro-7-(2-fluoro-6-(4,4,5,5-tetramethyl-1,3,2-dioxaborolan-2-yl)phenyl)quinazolin-4-yl)-2,5-dimethyl-piperazin-1-yl) prop-2-en-1-one], “+ (+ indicates binding activity greater than 0% and up to 50%)”.
For the molecule `C=CC(=O)N1C[C@H](C)N(c2nc(Oc3cnn(C)c3)nc3c(F)c(-c4cc(O)cc5ccccc45)c(Cl)cc23)C[C@H]1C` [Compound 216, 1-((2R,5S)-4-(6-chloro-8-fluoro-7-(3-hydroxy-naphthalen-1-yl)-2-(1-methyl-1H-pyrazol-4-yloxy)quinazolin-4-yl)-2,5-dimethyl-piperazin-1-yl) prop-2-en-1-one], the Binding % entry was “++ (++ indicates binding activity from 50 to 90%)”.
As to `C=CC(=O)N1C[C@H](C)N(c2nc(N3CC(N(C)CC)C3)nc3c(F)c(-c4c(O)cccc4F)c(Cl)cc23)C[C@H]1C` (atropisomer, axis not shown) [Compound 155, 1-((2R,5S)-4-(6-chloro-2-(3-(ethyl(methyl)amino)azetidin-1-yl)-8-fluoro-7-((R)-2-fluoro-6-hydroxyphenyl)quinazolin-4-yl)-2,5-dimethyl-piperazin-1-yl) prop-2-en-1-one], the Binding % result was “+ (+ indicates binding activity greater than 0% and up to 50%)”.
On to `C=CC(=O)N1C[C@H](C)N(c2nc(N3CC(NC)C3)nc3c(F)c(-c4c(C)ccc5cn[nH]c45)c(Cl)cc23)C[C@H]1C` (atropisomer, axis not shown) [Compound 108, 1-((2R,5S)-4-(6-chloro-8-fluoro-7-((R)-6-methyl-1H-indazol-7-yl)-2-(3-(methylamino)azetidin-1-yl)quinazolin-4-yl)-2,5-dimethyl-piperazin-1-yl) prop-2-en-1-one], for which the Binding % result is reported as “+++ (+++ indicates binding activity greater than 90%)”.
As to `C=CC(=O)N1C[C@H](C)N(c2nc(OCCCN(C)C)nc3c(F)c(-c4cc(O)cc5ccccc45)c(C(F)(F)F)cc23)C[C@H]1C` [Compound 210, 1-((2R,5S)-4-(2-(3-(dimethylamino)propoxy)-8-fluoro-7-(3-hydroxy-naphthalen-1-yl)-6-(trifluoromethyl)quinazolin-4-yl)-2,5-dimethyl-piperazin-1-yl) prop-2-en-1-one], the Binding % result is reported as “+++ (+++ indicates binding activity greater than 90%)”.
Take `C=CC(=O)N1C[C@H](C)N(c2nc(N3CC(N(C)C4CC4)C3)nc3c(F)c(-c4c(C)ccc5cn[nH]c45)c(Cl)cc23)C[C@H]1C` [Compound 133, 1-((2R,5S)-4-(6-chloro-2-(3-(cyclopropyl (methyl)amino)azetidin-1-yl)-8-fluoro-7-(6-methyl-1H-indazol-7-yl)quinazolin-4-yl)-2,5-dimethyl-piperazin-1-yl) prop-2-en-1-one]: the Binding % entry is recorded as “++ (++ indicates binding activity from 50 to 90%)”.
